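Five concentrations, 48 hours, 96-well plates. GI50 marks 50% less growth. TGI is the concentration that stops growth completely.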
Key:
Assay in all cases: growth of human tumour cells (NCI), 48 h
[1] = system: 786-0 renal
[2] = system: A498 renal
[3] = system: A549 NSCLC
[4] = system: ACHN renal
[5] = system: BT-549 breast
[6] = system: CAKI-1 renal
[7] = system: CCRF-CEM leukemia
[8] = system: COLO 205 colon
[9] = system: DU-145 prostate
[10] = system: EKVX NSCLC
[11] = system: HCC-2998 colon
[12] = system: HCT-116 colon
[13] = system: HCT-15 colon
[14] = system: HL-60(TB) leukemia
[15] = system: HOP-62 NSCLC
[16] = system: HOP-92 NSCLC
[17] = system: HS 578T breast
[18] = system: HT29 colon
[19] = system: IGROV1 ovarian
[20] = system: K-562 leukemia
[21] = system: KM12 colon
[22] = system: LOX IMVI melanoma
[23] = system: M14 melanoma
[24] = system: MALME-3M melanoma
[25] = system: MCF7 breast
[26] = system: MDA-MB-231 breast
[27] = system: MDA-MB-435
[28] = system: MOLT-4 leukemia
[29] = system: NCI-H226 lung
[30] = system: NCI-H23 lung
[31] = system: NCI-H460 lung
[32] = system: NCI-H522 lung
[33] = system: NCI/ADR-RES ovarian
[34] = system: OVCAR-3 ovarian
[35] = system: OVCAR-4 ovarian
[36] = system: OVCAR-5 ovarian
[37] = system: OVCAR-8 ovarian
[38] = system: PC-3 prostate
[39] = system: RPMI-8226 leukemia
[40] = system: RXF 393 renal
[41] = system: SF-268 CNS
[42] = system: SF-295 CNS
[43] = system: SF-539 CNS
[44] = system: SK-MEL-2 melanoma
[45] = system: SK-MEL-28 melanoma
[46] = system: SK-MEL-5 melanoma
[47] = system: SK-OV-3 ovarian
[48] = system: SN12C renal
[49] = system: SNB-19 CNS
[50] = system: SNB-75 CNS
[51] = system: SR leukemia
[52] = system: SW-620 colon
[53] = system: T-47D breast
[54] = system: TK-10 renal
[55] = system: U251 CNS
[56] = system: UACC-257 melanoma
[57] = system: UACC-62 melanoma
[58] = system: UO-31 renal

COc1cc2c3c(n(CCCCN)c(=O)c2cc1OC)-c1cc2c(cc1C3=O)OCO2
GI50 [1]: 0.172 µM
TGI [1]: 0.889 µM
GI50 [2]: 7.81 µM
TGI [2]: 17 µM
GI50 [3]: 1.06 µM
TGI [3]: 11.9 µM
GI50 [4]: 0.38 µM
TGI [4]: 1.35 µM
GI50 [5]: 1.17 µM
TGI [5]: 4.84 µM
GI50 [6]: 0.656 µM
TGI [6]: 4.12 µM
GI50 [7]: 0.0913 µM
TGI [7]: 3.75 µM
GI50 [8]: 1.04 µM
TGI [8]: 6.17 µM
GI50 [9]: 0.147 µM
TGI [9]: 1.03 µM
GI50 [10]: 0.744 µM
TGI [10]: 3.57 µM
GI50 [11]: 0.659 µM
TGI [11]: 2.26 µM
GI50 [12]: 0.234 µM
TGI [12]: 0.797 µM
GI50 [13]: 0.805 µM
TGI [13]: 9.81 µM
GI50 [14]: 1.88 µM
TGI [14]: 15.4 µM
GI50 [15]: 0.322 µM
TGI [15]: 1.21 µM
GI50 [16]: 0.487 µM
TGI [16]: 2.43 µM
GI50 [17]: 4.6 µM
TGI [17]: 11.8 µM
GI50 [18]: 0.586 µM
TGI [18]: 25 µM
GI50 [19]: 1.14 µM
TGI [19]: 5.08 µM
GI50 [20]: 0.431 µM
TGI [20]: 2.17 µM
GI50 [21]: 1.72 µM
TGI [21]: 6.32 µM
GI50 [22]: 0.107 µM
TGI [22]: 0.529 µM
GI50 [23]: 1.36 µM
TGI [23]: 6.22 µM
GI50 [24]: 4.11 µM
TGI [24]: 11.2 µM
GI50 [25]: 0.0191 µM
TGI [25]: 1.13 µM
GI50 [26]: 0.442 µM
TGI [26]: 1.56 µM
GI50 [27]: 2.29 µM
TGI [27]: 7.32 µM
GI50 [28]: 0.114 µM
TGI [28]: 2.95 µM
GI50 [29]: 0.492 µM
TGI [29]: 1.58 µM
GI50 [30]: 0.676 µM
TGI [30]: 3.09 µM
GI50 [31]: 0.114 µM
TGI [31]: 2.07 µM
GI50 [32]: 0.259 µM
TGI [32]: 9.89 µM
GI50 [33]: 2.34 µM
TGI [33]: 11.2 µM
GI50 [34]: 1.01 µM
TGI [34]: 2.67 µM
GI50 [35]: 0.719 µM
TGI [35]: 4.66 µM
GI50 [36]: 4.97 µM
TGI [36]: 12.3 µM
GI50 [37]: 0.71 µM
TGI [37]: 13.1 µM
GI50 [38]: 0.159 µM
TGI [38]: 0.583 µM
GI50 [39]: 0.351 µM
TGI [39]: 1.31 µM
GI50 [40]: 1.47 µM
TGI [40]: 5.72 µM
GI50 [41]: 0.801 µM
TGI [41]: 5.55 µM
GI50 [42]: 0.274 µM
TGI [42]: 2.81 µM
GI50 [43]: 0.0434 µM
TGI [43]: 0.139 µM
GI50 [44]: 6.3 µM
TGI [44]: 18 µM
GI50 [45]: 1.56 µM
TGI [45]: 12.4 µM
GI50 [46]: 1.6 µM
TGI [46]: 6.4 µM
GI50 [47]: 1.23 µM
TGI [47]: 9.41 µM
GI50 [48]: 0.0583 µM
TGI [48]: 0.235 µM
GI50 [49]: 0.464 µM
TGI [49]: 6.75 µM
GI50 [50]: 0.778 µM
TGI [50]: 5.5 µM
GI50 [51]: 0.115 µM
TGI [51]: 0.417 µM
GI50 [52]: 0.0851 µM
TGI [52]: 2.3 µM
GI50 [53]: 1.22 µM
TGI [53]: 10.3 µM
GI50 [54]: 3.84 µM
TGI [54]: 8.48 µM
GI50 [55]: 0.407 µM
TGI [55]: 2.86 µM
GI50 [56]: 3.35 µM
TGI [56]: 25 µM
GI50 [57]: 0.216 µM
TGI [57]: 1.04 µM
GI50 [58]: 2.97 µM
TGI [58]: 12 µM

— PubChem BioAssay (NCI)
